Settings: 500 kPa, Liquid, Concentric cylinders viscometry

NCCCO [3-amino-1-propanol]
Settings | viscosity [mPa·s]
298.15 K | 30.43
303.15 K | 23.87
308.15 K | 19.07
313.15 K | 15.27
318.15 K | 12.36
323.15 K | 10.22
328.15 K | 8.54
333.15 K | 7.12
338.15 K | 6.05
343.15 K | 4.84
348.15 K | 4.17
353.15 K | 3.63
358.15 K | 3.19
363.15 K | 2.73
368.15 K | 2.52
373.15 K | 2.25
